# Measured values reported in patent publication US9399626B2, “2-thiopyrimidinones” (Pfizer Inc., priority 2011, dated 2016).
# Biological target: T1, MPO (purified from human polynuclear leukocytes) (Homo sapiens, UniProt P05164)
# T1 construct: purified from human polynuclear leukocytes; purchased Calbiochem/EMD Biosciences; host or cells: human polynuclear leukocytes (natural source)
# Test: MPO Amplex Red Activity Assay
# Assay type: biochemical
# Details: Table 1, 2 μM H2O2, pH 7.4
# Method in brief: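 Human leukocyte MPO […] oxidises 30 μM Amplex Red with 2 μM H2O2 in 50 mM NaPi pH 7.4, 150 mM NaCl, 1 mM DTPA, 2% DMSO. Resorufin fluorescence (ex 530/em 580 nm) read every 20 s, minus catalase background. kobs from the first 600 s, corrected for auto-inactivation, fit versus [I] for kinact/KI.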
# T1 sequence (P05164 279-745 limits assumed): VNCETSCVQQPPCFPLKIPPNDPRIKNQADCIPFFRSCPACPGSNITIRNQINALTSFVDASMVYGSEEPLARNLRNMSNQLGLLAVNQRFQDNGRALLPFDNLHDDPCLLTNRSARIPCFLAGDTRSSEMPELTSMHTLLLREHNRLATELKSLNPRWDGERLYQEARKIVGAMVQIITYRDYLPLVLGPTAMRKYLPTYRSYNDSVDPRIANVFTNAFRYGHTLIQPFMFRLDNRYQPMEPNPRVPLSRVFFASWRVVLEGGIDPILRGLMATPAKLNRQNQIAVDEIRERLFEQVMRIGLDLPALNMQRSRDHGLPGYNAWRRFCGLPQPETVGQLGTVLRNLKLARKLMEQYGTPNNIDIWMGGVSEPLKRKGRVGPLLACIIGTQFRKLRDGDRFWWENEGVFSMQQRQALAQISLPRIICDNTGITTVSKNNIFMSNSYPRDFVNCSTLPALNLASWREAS
# T1 sequence (P05164 165-273 limits assumed): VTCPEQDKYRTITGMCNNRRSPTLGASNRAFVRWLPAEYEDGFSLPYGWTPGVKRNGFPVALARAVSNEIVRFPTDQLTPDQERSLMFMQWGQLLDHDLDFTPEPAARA
row,Structure (SMILES),MPO kinact/Ki
1,"COCCn1c(-c2ccc(O)cc2)cc(=O)[nH]c1=S [Example 286, 6-(4-hydroxyphenyl)-1-(2-methoxyethyl)-2-thioxo-2,3-dihydropyrimdin-4(1H)-one]",1500 1/s per M
2,COCCn1c(-c2cccc(O)c2)cc(=O)[nH]c1=S [Example 287],2130 1/s per M
3,"COCCn1c(-c2ccccc2O)cc(=O)[nH]c1=S [Example 288, 6-(2-hydroxyphenyl)-1-(2-methoxyethyl)-2-thioxo-2,3-dihydropyrimidin-4(1H)-one]",4230 1/s per M
4,"COCCn1c(-c2cccc(F)c2)cc(=O)[nH]c1=S [Example 289, 6-(3-fluorophenyl)-1-(2-methoxyethyl)-2-thioxo-2,3-dihydropyrimidin-4(1H)-one]",1580 1/s per M
5,"COCCn1c(-c2ccc(F)cc2)cc(=O)[nH]c1=S [Example 290, 6-(4-fluorophenyl)-1-(2-methoxyethyl)-2-thioxo-2,3-dihydropyrimidin-4(1H)-one]",1890 1/s per M
6,"COCCn1c(-c2cccc(C#N)c2)cc(=O)[nH]c1=S [Example 291, 3-[3-(2-methoxyethyl)-6-oxo-2-thioxo-1,2,3,6-tetrahydropyrimidin-4-yl]benzonitrile]",2450 1/s per M
7,"COCCn1c(-c2ccccc2CO)cc(=O)[nH]c1=S [Example 292, 6-[2-(hydroxymethyl)phenyl]-1-(2-methoxyethyl)-2-thioxo-2,3-dihydropyrimidin-4(1H)-one]",1070 1/s per M
8,"COCCn1c(-c2cccc(OC)c2)cc(=O)[nH]c1=S [Example 293, 1-(2-methoxyethyl)-6-(3-methoxyphenyl)-2-thioxo-2,3-dihydropyrimidin-4(1H)-one]",1810 1/s per M
9,"COCCn1c(-c2ccc(OC)cc2)cc(=O)[nH]c1=S [Example 294, 1-(2-methoxyethyl)-6-(4-methoxyphenyl)-2-thioxo-2,3-dihydropyrimidin-4(1H)-one]",1910 1/s per M
10,"COCCn1c(-c2ccc(OC)nc2)cc(=O)[nH]c1=S [Example 295, 1-(2-methoxyethyl)-6-(6-methoxypyridin-3-yl)-2-thioxo-2,3-dihydropyrimidin-4(1H)-one]",793 1/s per M
11,"COCCn1c(-c2ccncc2OC)cc(=O)[nH]c1=S [Example 296, 1-(2-methoxyethyl)-6-(3-methoxypyridin-4-yl)-2-thioxo-2,3-dihydropyrimidin-4(1H)-one]",1570 1/s per M
12,"COCCn1c(-c2ccnc(OC)c2)cc(=O)[nH]c1=S [Example 297, 1-(2-methoxyethyl)-6-(2-methoxypyridin-4-yl)-2-thioxo-2,3-dihydropyrimidin-4(1H)-one]",762 1/s per M
13,"COCCn1c(-c2ccc(Cl)cc2)cc(=O)[nH]c1=S [Example 298, 6-(4-chlorophenyl)-1-(2-methoxyethyl)-2-thioxo-2,3-dihydropyrimidin-4(1H)-one]",1080 1/s per M
14,"COCCn1c(-c2ccccc2Cl)cc(=O)[nH]c1=S [Example 299, 6-(2-chlorophenyl)-1-(2-methoxyethyl)-2-thioxo-2,3-dihydropyrimidin-4(1H)-one]",2060 1/s per M
15,"COCCn1c(-c2cccc(Cl)c2)cc(=O)[nH]c1=S [Example 300, 6-(3-chlorophenyl)-1-(2-methoxyethyl)-2-thioxo-2,3-dihydropyrimidin-4(1H)-one]",2460 1/s per M
16,"COCCn1c(-c2ccc3cc[nH]c3c2)cc(=O)[nH]c1=S [Example 301, 6-(1H-indol-6-yl)-1-(2-methoxyethyl)-2-thioxo-2,3-dihydropyrimidin-4(1H)-one]",3330 1/s per M
17,"COCCn1c(-c2cc3ccccc3[nH]2)cc(=O)[nH]c1=S [Example 302, 6-(1H-indol-2-yl)-1-(2-methoxyethyl) 2-thioxo-2,3-dihydropyrimidin-4(1H)-one]",3630 1/s per M
18,"COCCn1c(-c2ccc3[nH]ccc3c2)cc(=O)[nH]c1=S [Example 303, 6-(1H-indol-5-yl)-1-(2-methoxyethyl)-2-thioxo-2,3-dihydropyrimidin-4(1H)-one]",5270 1/s per M
19,"COCCn1c(-c2cccc3[nH]ccc23)cc(=O)[nH]c1=S [Example 304, 6-(1H-indol-4-yl)-1-(2-methoxyethyl)-2-thioxo-2,3-dihydropyrimidin-4(1H)-one]",6290 1/s per M
20,"COCCn1c(-c2coc3ccccc23)cc(=O)[nH]c1=S [Example 305, 6-(1-benzofuran-3-yl)-1-(2-methoxyethyl)-2-thioxo-2,3-dihydropyrimidin-4(1H)-one]",6370 1/s per M
21,"COCCn1c(-c2cc3ccccc3o2)cc(=O)[nH]c1=S [Example 306, 6-(1-benzofuran-2-yl)-1-(2-methoxyethyl)-2-thioxo-2,3-dihydropyrimidin-4(1H)-one]",6740 1/s per M

row,Structure (SMILES),MPO kinact/Ki
1,"COCCn1c(-c2cccc3ccoc23)cc(=O)[nH]c1=S [Example 307, 6-(1-benzofuran-7-yl)-1-(2-methoxyethyl)-2-thioxo-2,3-dihydropyrimidin-4(1H)-one]",14400 1/s per M
2,"COCCn1c(-c2ccc3c(c2)CCO3)cc(=O)[nH]c1=S [Example 308, 6-(2,3-dihydro-1-benzofuran-5-yl)-1-(2-methoxyethyl)-2-thioxo-2,3-dihydropyrimidin-4(1H)-one]",5340 1/s per M
3,"COCCn1c(-c2ccc3c(c2)OCO3)cc(=O)[nH]c1=S [Example 309, 6-(1,3-benzodioxol-5-yl)-1-(2-methoxyethyl)-2-thioxo-2,3-dihydropyrimidin-4(1H)-one]",3160 1/s per M
4,"CCOc1ccccc1-c1cc(=O)[nH]c(=S)n1CCOC [Example 310, 6-(2-ethoxyphenyl)-1-(2-methoxyethyl)-2-thioxo-2,3-dihydropyrimidin-4(1H)-one]",3110 1/s per M
5,"CCOc1ccc(-c2cc(=O)[nH]c(=S)n2CCOC)cc1 [Example 311, 6-(4-ethoxyphenyl)-1-(2-methoxyethyl)-2-thioxo-2,3-dihydropyrimidin-4(1H)-one]",2080 1/s per M
6,"COCCn1c(-c2cc(C)ccc2OC)cc(=O)[nH]c1=S [Example 312, 1-(2-methoxyethyl)-6-(2-methoxy-5-methylphenyl)-2-thioxo-2,3-dihydropyrimidin-4(1H)-one]",17100 1/s per M
7,"CCOc1ccc(-c2cc(=O)[nH]c(=S)n2CCOC)cn1 [Example 313, 6-(6-ethoxypyridin-3-yl)-1-(2-methoxyethyl)-2-thioxo-2,3-dihydropyrimidin-4(1H)-one]",973 1/s per M
8,"COCCn1c(-c2cnc(N(C)C)nc2)cc(=O)[nH]c1=S [Example 314, 2′-(dimethylamino)-3-(2-methoxyethyl)-2-thioxo-2,3-dihydro-4,5′-bipyrimidin-6(1H)-one]",429 1/s per M
9,"COCCn1c(-c2ccc(OC)c(F)c2)cc(=O)[nH]c1=S [Example 315, 6-(3-fluoro-4-methoxyphenyl)-1-(2-methoxyethyl)-2-thioxo-2,3-dihydropyrimidin-4(1H)-one]",1420 1/s per M
10,"COCCn1c(-c2ccc(OC)cc2F)cc(=O)[nH]c1=S [Example 316, 6-(2-fluoro-4-methoxyphenyl)-1-(2-methoxyethyl)-2-thioxo-2,3-dihydropyrimidin-4(1H)-one]",3060 1/s per M
11,"COCCn1c(-c2cc(F)ccc2OC)cc(=O)[nH]c1=S [Example 317, 6-(5-fluoro-2-methoxyphenyl)-1-(2-methoxyethyl)-2-thioxo-2,3-dihydropyrimidin-4(1H)-one]",7380 1/s per M
12,"COCCn1c(-c2ccc(F)cc2OC)cc(=O)[nH]c1=S [Example 318, 6-(4-fluoro-2-methoxyphenyl)-1-(2-methoxyethyl)-2-thioxo-2,3-dihydropyrimidin-4(1H)-one]",5240 1/s per M
13,"COCCn1c(-c2cccc3ccccc23)cc(=O)[nH]c1=S [Example 319, 1-(2-methoxyethyl)-6-(1-naphthyl)-2-thioxo-2,3-dihydropyrimidin-4(1H)-one]",7810 1/s per M
14,"COCCn1c(-c2cnc3ccccc3c2)cc(=O)[nH]c1=S [Example 320, 1-(2-methoxyethyl)-6-quinolin-3-yl-2-thioxo-2,3-dihydropyrimidin-4(1H)-one]",2390 1/s per M
15,"COCCn1c(-c2cccc3ncccc23)cc(=O)[nH]c1=S [Example 321, 1-(2-methoxyethyl)-6-quinolin-5-yl-2-thioxo-2,3-dihydropyrimidin-4(1H)-one]",2480 1/s per M
16,"COCCn1c(-c2cccc3cccnc23)cc(=O)[nH]c1=S [Example 322, 1-(2-methoxyethyl)-6-quinolin-8-yl-2-thioxo-2,3-dihydropyrimidin-4(1H)-one]",2800 1/s per M
17,"COCCn1c(-c2cc3ccccc3s2)cc(=O)[nH]c1=S [Example 323, 6-(1-benzothien-2-yl)-1-(2-methoxyethyl)-2-thioxo-2,3-dihydropyrimidin-4(1H)-one]",10200 1/s per M
18,"COCCn1c(-c2csc3ccccc23)cc(=O)[nH]c1=S [Example 324, 6-(1-benzothien-3-yl)-1-(2-methoxyethyl)-2-thioxo-2,3-dihydropyrimidin-4(1H)-one]",11300 1/s per M
19,"CNC(=O)c1cccc(-c2cc(=O)[nH]c(=S)n2CCOC)c1 [Example 325, 3-[3-(2-methoxyethyl)-6-oxo-2-thieno-1,2,3,6-tetrahydropyrimidin-4-yl]-N-methylbenzamide]",1160 1/s per M
20,"COCCn1c(-c2ccc3c(c2)OCCO3)cc(=O)[nH]c1=S [Example 326, 6-(2,3-dihydro-1,4-benzodioxin-6-yl)-1-(2-methoxyethyl)-2-thioxo-2,3-dihydropyrimidin-4(1H)-one]",7480 1/s per M
